Measurements: patent US20260337153A1, “IONIZABLE AMINE LIPIDS” (Intellia Therapeutics, Inc., priority 2023, published 2026)

What was measured:
[1] = LNP encapsulation efficiency of RNA (Ribogreen fluorescence assay); assay type: physicochemical; details: sgRNA:mRNA 1:2
Description: LNP compositions are analyzed for average particle size, polydispersity index (pdi), total RNA content, encapsulation efficiency of RNA, and zeta potential. LNP compositions may be further characterized by lipid analysis, AF4-MALS, NTA, and/or cryo-EM.
Encapsulation efficiency is calculated as (Total RNA−Free RNA)/Total RNA. A fluorescence-based assay (Ribogreen®, ThermoFisher Scientific) is used to determine total RNA concentration and free RNA. LNP samples are diluted appropriately with 1×TE buffer containing 0.2% Triton-X 100 to determine total RNA or 1×TE buffer to determine free RNA. Standard curves are prepared by utilizing the starting RNA solution used to make the compositions and diluted in 1×TE buffer+/−0.2% Triton-X 100. Diluted RiboGreen® dye (according to the manufacturer's instructions) is then added to each of the standards and samples and allowed to incubate for approximately 10 minutes at room temperature, in the absence of light. A SpectraMax M5 Microplate Reader (Molecular Devices) is used to read the samples with excitation, auto cutoff and emission wavelengths set to 488 nm, 515 nm, and 525 nm respectively. Total RNA and free RNA are determined from the appropriate standard curves. Alternatively, the total RNA concentration can be determined by a reverse-phase ion-pairing (RP-IP) HPLC method. Triton X-100 is used to disrupt the LNPs, releasing the RNA. The RNA is then separated from the lipid components chromatographically by RP-IP HPLC and quantified against a standard curve using UV absorbance at 260 nm.
In vivo editing efficiency for materials delivered with formulations including various amine lipid (or ionizable lipid) compounds in Experiments 1 through 14 as described in Tables 3 and 4 was assessed. Editing was measured using G000534 (SEQ ID NO: 5) which targets the rat TTR gene. Lipids described above were assessed for efficacy through in vivo editing experiments. LNPs were formulated at a 1:2 w/w ratio of sgRNA (SEQ ID NO: 5) and Cas9 mRNA (SEQ ID NO: 3). In Experiments 1 through 13, lipid components of the LNP are formulated in a molar ratio of 50% ionizable lipid, 38% cholesterol, 9% DSPC, and 3% PEG2K-DMG. In Experiment 14, lipid components of the LNP are formulated in a molar ratio of 50% ionizable lipid, 38% cholesterol, 9% DSPC, and 3% C13 Ether. The final LNPs used in different in vivo editing experiments were characterized to determine the encapsulation efficiency (% E), polydispersity index (PDI), and average particle size (Z-avg and number mean) according to the analytical methods provided above. The pKa values of each of the following ionizable lipids were also measured to be in the range of about 5.8 to about 7.6.
In vivo editing efficiency for materials delivered with formulations including various combinations of amine lipid (or ionizable lipid) and PEG lipid compounds was assessed as described in Tables 5 and 6. Editing was measured using G000534 (SEQ ID NO: 5) which targets the rat TTR gene. Lipids described above were assessed for efficacy through in vivo editing experiments. LNPs were formulated at a 1:2 w/w ratio of sgRNA (SEQ ID NO: 5) and Cas9 mRNA (SEQ ID NO:3). Lipid components of the LNP are formulated in a molar ratio of 50% ionizable lipid, 38% cholesterol, 9% DSPC, and 3% of various PEG lipids (e.g., PEG2K-DMG, C13 Ether, C14 Ether). The final LNPs used in different in vivo editing experiments were characterized to determine the encapsulation efficiency (% E), polydispersity index (PDI), and average particle size (Z-avg and number mean) according to the analytical methods provided above. The pKa values of each of the following ionizable lipids were also measured to be in the range of about 5.8 to about 7.6.
In vivo editing efficiency for materials delivered with formulations including various amine lipid (or ionizable lipid) compounds as described in Tables 7 and 8 was assessed. […]

[2] = pKa of unformulated amine lipid by TNS fluorescence; assay type: physicochemical; details: sodium phosphate buffer; Table 2; unformulated amine lipid, TNS; read-out: Lipid pKa
Description: The pKa of each amine lipid was determined according to the method in Jayaraman, et al. (Angew Chem Int Ed Engl 51(34), 2012, 8529-8533) with the following adaptations. The pKa was determined for unformulated amine lipid in ethanol. Lipid stock solutions (2.94 mM) were diluted into Sodium Phosphate Buffers (0.1 M, Boston Bioproducts) of different pH (pH-range: 4.5-9.0) yielding a final lipid concentration of approx. 100 μM. The test samples were supplemented with TNS {6-(p-Toluidino)-2-naphthalenesulfonic acid sodium salt}, incubated and the fluorescence intensity was measured using excitation and emission wavelengths of 321 nm and 448 nm, respectively. The recorded data were normalized and the respective pKa values were derived from sigmoidal fitting.

[3] = Table 3, Experiments 1-13, LNP 50% ionizable lipid, 38% cholesterol, 9% DSPC, 3% PEG2K-DMG
[4] = Table 3, Experiment 14, LNP with 3% C13 Ether

| % E (encapsulation efficiency) [1, 3] | pKa [2] | Structure (SMILES) | also measured |
| --- | --- | --- | --- |
| 98% | – | CCCCCCCCOC(CCC(=O)OCC(COC(=O)CCC(OCCCCCCCC)OCCCCCCCC)COC(=O)OCCCN(CC)CC)OCCCCCCCC [Compound 1, 2-((((3-(diethylamino)propoxy)carbonyl)oxy)methyl)propane-1,3-diyl bis(4,4-bis(octyloxy)butanoate)] | – |
| 98% | 6.23 | CCCCCCCCC(CCCCCCCC)OC(=O)CCCC(=O)OCC(COC(=O)CCCC(=O)OC(CCCCCCCC)CCCCCCCC)COC(=O)OCCCN(CC)CC [Compound 2, O,O′-(2-((((3-(diethylamino)propoxy)carbonyl)oxy)methyl)propane-1,3-diyl) di(heptadecan-9-yl) diglutarate] | % E (encapsulation efficiency) [1, 4]: 99% |
| 96% | – | CCCCCCCCC(CCCCCCCC)OC(=O)CCCCCC(=O)OCC(COC(=O)CCCCCC(=O)OC(CCCCCCCC)CCCCCCCC)COC(=O)OCCCN(CC)CC [Compound 3, O′1,O1-(2-((((3-(diethylamino)propoxy)carbonyl)oxy)methyl)propane-1,3-diyl) 7,7′-di(heptadecan-9-yl) di(heptanedioate)] | – |
| 98% | 5.85 | CCCCCCCCC(CCCCCCCC)OC(=O)CCCCCCC(COC(=O)CCCC(=O)OC(CCCCCCCC)CCCCCCCC)COC(=O)OCCCN(CC)CC (stereo not drawn) [Compound 8, 2-((((3-(diethylamino)propoxy)carbonyl)oxy)methyl)-9-(heptadecan-9-yloxy)-9-oxononyl heptadecan-9-yl glutarate] | – |
| 97% | 6.37 | CCCCC/C=C\C/C=C\CCCCCCCC(=O)OCC(CCCCCCCCC(=O)OC(CCCCCCCC)CCCCCCCC)COC(=O)NCCN(CC)CC (stereo not drawn) [Compound 10, 2-((((2-(diethylamino)ethyl)carbamoyl)oxy)methyl)-11-(heptadecan-9-yloxy)-11-oxoundecyl (9Z,12Z)-octadeca-9,12-dienoate] | – |
| 99% | 6.13 | CCCCC/C=C\C/C=C\CCCCCCCC(=O)OCC(CCCCCCCCC(=O)OC(CCCCCCCC)CCCCCCCC)COC(=O)OCCCN(C)CC (stereo not drawn) [Compound 11, 2-((((3-(ethyl(methyl)amino)propoxy)carbonyl)oxy)methyl)-11-(heptadecan-9-yloxy)-11-oxoundecyl (9Z,12Z)-octadeca-9,12-dienoate] | – |
| 98% | – | CCCCCCCCC(CCCCCCCC)OC(=O)CCCC(=O)OCC(C)(COC(=O)CCCC(=O)OC(CCCCCCCC)CCCCCCCC)COC(=O)NCCN(CC)CC [Compound 36, O,O′-(2-((((2-(diethylamino)ethyl)carbamoyl)oxy)methyl)-2-methylpropane-1,3-diyl) di(heptadecan-9-yl) diglutarate] | – |
| 98% | – | CCCCCCCCCCCC(=O)OCC(COC(=O)CCC(OCCCCCCCC)OCCCCCCCC)COC(=O)OCCCN(CC)CC (stereo not drawn) [Compound 41, 3-((4,4-bis(octyloxy)butanoyl)oxy)-2-((((3-(diethylamino)propoxy)carbonyl)oxy)methyl)propyl Dodecanoate] | – |
| 94% | – | CCCCCCCCOC(CCC(=O)OCC(COC(=O)NCCN(CC)CC)COC(=O)C(CCCC)CCCCCC)OCCCCCCCC (stereo not drawn) [Compound 48, 3-((4,4-bis(octyloxy)butanoyl)oxy)-2-((((2-(diethylamino)ethyl)carbamoyl)oxy)methyl)propyl 2-butyloctanoate] | – |

Second part, the molecule before the results:

| Structure (SMILES) | % E (encapsulation efficiency) [1, 3] | pKa [2] | also measured |
| --- | --- | --- | --- |
| CCCCC/C=C\C/C=C\CCCCCCCC(=O)OCC(COC(=O)CCCCCC(=O)OCC(CCCC)CCCCCC)COC(=O)OCCCN(CC)CC (stereo not drawn) [Compound 4, 1-(2-butyloctyl) 7-(3-(((3-(diethylamino)propoxy)carbonyl)oxy)-2-((((9Z,12Z)-octadeca-9,12-dienoyl)oxy)methyl)propyl) heptanedioate] | 99% | 6.05 | – |
| CCCCCCC(CCCC)COC(=O)CCCCCC(=O)OCC(COC(=O)CCCCCC(=O)OCC(CCCC)CCCCCC)COC(=O)OCCCN(CC)CC (stereo not drawn) [Compound 5, 7,7′-bis(2-butyloctyl) O′1,O1-(2-((((3-(diethylamino)propoxy)carbonyl)oxy)methyl)propane-1,3-diyl) di(heptanedioate)] | 97% | – | – |
| CCCCCCCCC(CCCCCCCC)OC(=O)CCCC(=O)OCC(COC(=O)CCCC(=O)OC(CCCCCCCC)CCCCCCCC)COC(=O)NCCN(CC)CC [Compound 6, O,O′-(2-((((2-(diethylamino)ethyl)carbamoyl)oxy)methyl)propane-1,3-diyl) di(heptadecan-9-yl) diglutarate] | 99% | 6.35 | % E (encapsulation efficiency) ([1]; LNP with 50% ionizable lipid, 38% cholesterol, 9% DSPC, 3% C13 Ether (LNP #1, Compound 53: 3% PEG2K-DMG instead)): 99%; % E (encapsulation efficiency) [1, 4]: 98%; % E (encapsulation efficiency) ([1]; Table 5, PEG lipid C13 Ether): 97%; % E (encapsulation efficiency) ([1]; Table 5, PEG lipid C14 Ether): 98%; % E (encapsulation efficiency) ([1]; Table 5, PEG lipid PEG2K-DMG): 97%; % E (encapsulation efficiency) ([1]; Table 7, LNP with 3% C13 Ether): 98% |
| CCCCC/C=C\C/C=C\CCCCCCCC(=O)OCC(CCCCCCCCC(=O)OCC(CCCC)CCCCCC)COC(=O)OCCCN(CC)CC (stereo not drawn) [Compound 7, 11-((2-butyloctyl)oxy)-2-((((3-(diethylamino)propoxy)carbonyl)oxy)methyl)-11-oxoundecyl (9Z,12Z)-octadeca-9,12-dienoate] | 98% | 6.09 | – |
| CCCCC/C=C\C/C=C\CCCCCCCC(=O)OCC(CCCCCCCCC(=O)OC(CCCCCCCC)CCCCCCCC)COC(=O)OCCCN(CC)CC (stereo not drawn) [Compound 9, 2-((((3-(diethylamino)propoxy)carbonyl)oxy)methyl)-11-(heptadecan-9-yloxy)-11-oxoundecyl (9Z,12Z)-octadeca-9,12-dienoate] | 99% | 5.87 | – |
| CCCCC/C=C\C/C=C\CCCCCCCC(=O)OCC(CCCCC(=O)OC(CCCC)CCCC)COC(=O)NCCN(CC)CC (stereo not drawn) [Compound 12, 2-((((2-(diethylamino)ethyl)carbamoyl)oxy)methyl)-7-(nonan-5-yloxy)-7-oxoheptyl (9Z,12Z)-octadeca-9,12-dienoate] | 96% | 6.82 | – |
| CCCCCCCCOC(CCC(=O)OCC(COC(=O)CC(CCCC)CCCCCC)COC(=O)OCCCN(CC)CC)OCCCCCCCC (stereo not drawn) [Compound 43, 3-((4,4-bis(octyloxy)butanoyl)oxy)-2-((((3-(diethylamino)propoxy)carbonyl)oxy)methyl)propyl 3-butylnonanoate] | 98% | – | – |
| CCCCCCCCC(CCCCCCCC)CC(=O)OCCC(=O)OCC(COC(=O)CCCC(=O)OC(CCCCCCCC)CCCCCCCC)COC(=O)NCCN(CC)CC (stereo not drawn) [Compound 63, 3-(((2-(diethylamino)ethyl)carbamoyl)oxy)-2-(((3-((3-octylundecanoyl)oxy)propanoyl)oxy)methyl)propyl heptadecan-9-yl Glutarate] | – | – | % E (encapsulation efficiency) ([1]; Table 7, LNP with 3% C13 Ether): 96% |
